The values below come from patent publication US20260070945A1, “MACROCYCLIC IMMUNOMODULATORS” (Bristol-Myers Squibb Company, priority 2022, published 2026).

*1 amine or outer side, *2 acyl side, *3 side chain or, on linkers, in order; H or OH if unused. Where a SMILES comes first, the peptide text is derived from it. Bridges are numbered along the chain shown (N, C = ends). [ ]: non-standard residue; d: D form. The star is where a group is joined. ξ: configuration not given here. Phe(4-COOH) = N[C@@H](Cc1ccc(C(=O)O)cc1)C(=O)O; Bip = N[C@@H](Cc1ccc(-c2ccccc2)cc1)C(=O)O; Phe(3-Me) = Cc1cccc(C[C@H](N)C(=O)O)c1; NMeE = CN[C@@H](CCC(=O)O)C(=O)O; NMeQ = CN[C@@H](CCC(N)=O)C(=O)O; Cha = N[C@@H](CC1CCCCC1)C(=O)O; Cit = NC(=O)NCCC[C@H](N)C(=O)O; Thr(3ξ) = CC(O)[C@H](N)C(=O)O; CH2COCH2 = O=C(C[*:1])C[*:2]; Carboxymethyl = O=C(O)C*; NMeA = CN[C@@H](C)C(=O)O; Aun = NCCCCCCCCCCC(=O)O; Dab = NCC[C@H](N)C(=O)O; ξV = CC(C)C(N)C(=O)O; Sar = CNCC(=O)O

T1 sequence (Q15116 25-288): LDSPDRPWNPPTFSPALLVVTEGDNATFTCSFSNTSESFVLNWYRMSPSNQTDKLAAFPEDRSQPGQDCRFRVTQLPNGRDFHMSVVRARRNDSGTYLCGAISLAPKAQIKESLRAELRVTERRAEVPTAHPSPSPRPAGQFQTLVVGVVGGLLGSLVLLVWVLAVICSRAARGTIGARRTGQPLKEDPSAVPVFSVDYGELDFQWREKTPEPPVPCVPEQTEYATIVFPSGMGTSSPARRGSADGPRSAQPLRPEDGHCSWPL

This test addresses T1, PD-1/PD-L1 interaction (PE-labeled human PD-L1-Ig binding to Jurkat cell line over-expressing human PD-1) (Homo sapiens, UniProt Q15116).
T1 construct: expressed in transfected cells; host or cells: Jurkat
Briefly: Jurkat-PD-1 Cell Binding High-Content Screening Assay (CBA). Conditions: Jurkat-hPD-1 cells, PE-labeled PD-L1-Ig 20 nM final; read-out: Jurkat HPD1 PDL1 IC50. In outline:
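In this imaging assay, cells in 10% FCS medium see compound for 2 h at 37 °C and then labeled ligand at 20 nM final for 1 h. Paraformaldehyde fixation, Hoechst 33342 staining and dPBS washes precede image capture.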
Broadly, the IC50 is the concentration that gives 50% inhibition. As to `Cc1cccc(C[C@@H]2NC(=O)[C@H](CC(=O)O)NC(=O)[C@H](Cc3ccc(OCC(=O)O)cc3)NC(=O)[C@H](CC(N)=O)NC(=O)CSC[C@@H](C(=O)NCCCCCCCCCCC(=O)O)NC(=O)[C@H](CCCNC(N)=O)NC(=O)[C@H](C(C)C)NC(=O)[C@H](CC3CCCCC3)NC(=O)[C@H](CCN)NC(=O)[C@@H](CC(C)C)NC(=O)[C@H](C)N(C)C(=O)C(C(C)C)NC(=O)[C@H](Cc3ccc(-c4ccccc4)cc3)NC(=O)[C@H](CC(C)C)NC2=O)c1` (stereo partly drawn) [Example 2248] ({CH2CO}-NY(Carboxymethyl)D[Phe(3-Me)]L[Bip][ξV][NMeA][dL][Dab][Cha]V[Cit]C[Aun]-OH; thioether N-14), the IC50 was found to be 11 nM.

For the compound `Cc1cccc(C[C@@H]2NC(=O)[C@H](CC(=O)O)NC(=O)[C@H](Cc3c[nH]cn3)NC(=O)[C@H](Cc3ccc(OCC(=O)O)cc3)NC(=O)CSC[C@@H](C(=O)NCCCCCCCCCCC(=O)O)NC(=O)[C@H](CCC(N)=O)NC(=O)[C@H](C(C)C)NC(=O)[C@H](CC3CCCCC3)NC(=O)[C@H](CCN)NC(=O)[C@@H](CC(C)C)NC(=O)[C@H](C)N(C)C(=O)[C@H](Cc3ccc(O)cc3)NC(=O)[C@H](Cc3ccc(-c4ccccc4)cc3)NC(=O)[C@H](CC(C)C)NC2=O)c1` [Example 2251] ({CH2CO}-Y(Carboxymethyl)HD[Phe(3-Me)]L[Bip]Y[NMeA][dL][Dab][Cha]VQC[Aun]-OH; thioether N-14), the half-maximal inhibitory concentration (IC50) is 169 nM.

In the case of `Cc1cccc(C[C@@H]2NC(=O)[C@H](CC(=O)O)NC(=O)[C@H](Cc3c[nH]cn3)NC(=O)[C@H](Cc3ccc(OCC(=O)O)cc3)NC(=O)CSC[C@@H](C(=O)NCCCCCCCCCCC(=O)O)NC(=O)[C@H](CO)NC(=O)[C@H](C(C)C)NC(=O)[C@H](CC3CCCCC3)NC(=O)[C@H](CCN)NC(=O)[C@@H](CC(C)C)NC(=O)[C@H](C)N(C)C(=O)[C@H](Cc3ccc(OCC(=O)O)cc3)NC(=O)[C@H](Cc3ccc(-c4ccccc4)cc3)NC(=O)[C@H](CC(C)C)NC2=O)c1` [Example 2252] ({CH2CO}-Y(Carboxymethyl)HD[Phe(3-Me)]L[Bip]Y(Carboxymethyl)[NMeA][dL][Dab][Cha]VSC[Aun]-OH; thioether N-14), the IC50 was 127 nM.

For `CC(=O)COc1ccc(C[C@@H]2NC(=O)[C@H](CCCNC(=N)N)NC(=O)CSC[C@@H](C(=O)N[C@@H](CCN)C(=O)NCCCCCCCCCCC(=O)O)NC(=O)[C@H](C(C)O)NC(=O)[C@H](C(C)C)NC(=O)[C@H](CC3CCCCC3)NC(=O)[C@H](CCN)NC(=O)[C@@H](CC(C)C)NC(=O)[C@H](C)N(C)C(=O)[C@H](Cc3ccc(OCC(=O)O)cc3)NC(=O)[C@H](Cc3ccc(-c4ccccc4)cc3)NC(=O)[C@H](CC(C)C)NC(=O)[C@H](Cc3cccc(C)c3)NC(=O)[C@H](CC(=O)O)NC2=O)cc1` (stereo partly drawn) [Example 2253] ({CH2CO}-RY(CH2COCH2)D[Phe(3-Me)]L[Bip]Y(Carboxymethyl)[NMeA][dL][Dab][Cha]V[Thr(3ξ)]C[Dab][Aun]-OH; thioether N-14), the IC50 turned out to be 11.9 nM.

As to `Cc1cccc(C[C@@H]2NC(=O)[C@H](CC(=O)O)NC(=O)[C@H](Cc3ccc(C(=O)O)cc3)NC(=O)[C@H](Cc3ccc(OCC(=O)O)cc3)NC(=O)CSC[C@@H](C(=O)NCCCCCCCCCCC(=O)O)NC(=O)[C@H](CCC(=O)O)NC(=O)[C@H](C(C)C)NC(=O)[C@H](CC3CCCCC3)NC(=O)[C@H](CCN)NC(=O)[C@@H](CC(C)C)NC(=O)[C@H](C)N(C)C(=O)[C@H](Cc3ccc(O)cc3)NC(=O)[C@H](Cc3ccc(-c4ccccc4)cc3)NC(=O)[C@H](CC(C)C)NC2=O)c1` [Example 2254] ({CH2CO}-Y(Carboxymethyl)[Phe(4-COOH)]D[Phe(3-Me)]L[Bip]Y[NMeA][dL][Dab][Cha]VEC[Aun]-OH; thioether N-14), the IC50 was 183 nM.

In the case of `Cc1cccc(C[C@@H]2NC(=O)[C@H](CC(=O)O)NC(=O)[C@H](Cc3ccc(OCC(=O)O)cc3)NC(=O)[C@H](Cc3ccc(OCC(=O)O)cc3)NC(=O)CSC[C@@H](C(=O)NCCCCCCCCCCC(=O)O)NC(=O)[C@H](CCC(=O)O)NC(=O)[C@H](C(C)C)NC(=O)[C@H](CC3CCCCC3)NC(=O)[C@H](CCN)NC(=O)[C@@H](CC(C)C)NC(=O)[C@H](CCC(N)=O)N(C)C(=O)[C@H](Cc3ccc(O)cc3)NC(=O)[C@H](Cc3ccc(-c4ccccc4)cc3)NC(=O)[C@H](Cc3ccc(O)cc3)NC2=O)c1` [Example 2255] ({CH2CO}-Y(Carboxymethyl)Y(Carboxymethyl)D[Phe(3-Me)]Y[Bip]Y[NMeQ][dL][Dab][Cha]VEC[Aun]-OH; thioether N-14), the IC50 turned out to be 63.1 nM.

Take `Cc1cccc(C[C@@H]2NC(=O)[C@H](CC(=O)O)NC(=O)[C@H](Cc3ccc(OCC(=O)O)cc3)NC(=O)[C@H](Cc3ccc(OCC(=O)O)cc3)NC(=O)CSC[C@@H](C(=O)NCCCCCCCCCCC(=O)O)NC(=O)[C@H](CCC(=O)O)NC(=O)[C@H](C(C)C)NC(=O)[C@H](CC3CCCCC3)NC(=O)[C@H](CCN)NC(=O)[C@@H](CC(C)C)NC(=O)[C@H](CCC(=O)O)N(C)C(=O)[C@H](Cc3ccc(O)cc3)NC(=O)[C@H](Cc3ccc(-c4ccccc4)cc3)NC(=O)[C@H](Cc3ccc(O)cc3)NC2=O)c1` [Example 2256] ({CH2CO}-Y(Carboxymethyl)Y(Carboxymethyl)D[Phe(3-Me)]Y[Bip]Y[NMeE][dL][Dab][Cha]VEC[Aun]-OH; thioether N-14): the IC50 came to 98.8 nM.

With `Cc1cccc(C[C@@H]2NC(=O)[C@H](CC(=O)O)NC(=O)[C@H](Cc3cnc[nH]3)NC(=O)[C@H](Cc3ccc(OCC(=O)O)cc3)NC(=O)CSC[C@@H](C(=O)NCCCCCCCCCCC(=O)O)NC(=O)[C@H](CCCNC(N)=O)NC(=O)[C@H](C(C)C)NC(=O)[C@H](CC3CCCCC3)NC(=O)[C@H](CCN)NC(=O)[C@@H](CC(C)C)NC(=O)[C@H](C)N(C)C(=O)[C@H](Cc3ccc(O)cc3)NC(=O)[C@H](Cc3ccc(-c4ccccc4)cc3)NC(=O)[C@H](CCC(N)=O)NC2=O)c1` [Example 2257] ({CH2CO}-Y(Carboxymethyl)HD[Phe(3-Me)]Q[Bip]Y[NMeA][dL][Dab][Cha]V[Cit]C[Aun]-OH; thioether N-14), the IC50 was found to be 199 nM.

`Cc1cccc(C[C@@H]2NC(=O)[C@H](CC(=O)O)NC(=O)[C@H](Cc3cnc[nH]3)NC(=O)[C@H](Cc3ccc(OCC(=O)O)cc3)NC(=O)CSC[C@@H](C(=O)NCCCCCCCCCCC(=O)O)NC(=O)[C@H](CCC(=O)O)NC(=O)[C@H](C(C)C)NC(=O)[C@H](CC3CCCCC3)NC(=O)[C@H](CCN)NC(=O)[C@@H](CC(C)C)NC(=O)[C@H](C)N(C)C(=O)[C@H](Cc3ccc(O)cc3)NC(=O)[C@H](Cc3ccc(-c4ccccc4)cc3)NC(=O)[C@H](CCC(N)=O)NC2=O)c1` [Example 2258] ({CH2CO}-Y(Carboxymethyl)HD[Phe(3-Me)]Q[Bip]Y[NMeA][dL][Dab][Cha]VEC[Aun]-OH; thioether N-14): the IC50 is 765 nM.

`Cc1cccc(C[C@@H]2NC(=O)[C@H](CC(=O)O)NC(=O)[C@H](Cc3ccc(OCC(=O)O)cc3)NC(=O)[C@H](C(C)O)NC(=O)CSC[C@@H](C(=O)N(C)CC(=O)NCCCCCCCCCCC(=O)O)NC(=O)[C@H](CCCNC(N)=O)NC(=O)[C@H](C(C)C)NC(=O)[C@H](CC3CCCCC3)NC(=O)[C@H](CCN)NC(=O)[C@@H](CC(C)C)NC(=O)[C@H](C)N(C)C(=O)[C@H](C(C)C)NC(=O)[C@H](Cc3ccc(-c4ccccc4)cc3)NC(=O)[C@H](C(C)C)NC2=O)c1` (stereo partly drawn) [Example 2259] ({CH2CO}-[Thr(3ξ)]Y(Carboxymethyl)D[Phe(3-Me)]V[Bip]V[NMeA][dL][Dab][Cha]V[Cit]C[Sar][Aun]-OH; thioether N-14): the IC50 is 11.4 nM.

Take `Cc1cccc(C[C@@H]2NC(=O)[C@H](CC(=O)O)NC(=O)[C@H](Cc3ccc(OCC(=O)O)cc3)NC(=O)[C@H](CCCNC(=N)N)NC(=O)CSC[C@@H](C(=O)N(C)CC(=O)NCCCCCCCCCCC(=O)O)NC(=O)[C@H](CCCNC(N)=O)NC(=O)[C@H](C(C)C)NC(=O)[C@H](CC3CCCCC3)NC(=O)[C@H](CCN)NC(=O)[C@@H](CC(C)C)NC(=O)[C@H](C)N(C)C(=O)[C@H](C(C)C)NC(=O)[C@H](Cc3ccc(-c4ccccc4)cc3)NC(=O)[C@H](C(C)C)NC2=O)c1` [Example 2260] ({CH2CO}-RY(Carboxymethyl)D[Phe(3-Me)]V[Bip]V[NMeA][dL][Dab][Cha]V[Cit]C[Sar][Aun]-OH; thioether N-14): the 50% inhibitory concentration (IC50) was 28.5 nM.

On to `Cc1cccc(C[C@@H]2NC(=O)[C@H](CC(=O)O)NC(=O)[C@H](Cc3ccc(OCC(=O)O)cc3)NC(=O)[C@H](CC(N)=O)NC(=O)CSC[C@@H](C(=O)N(C)CC(=O)NCCCCCCCCCCC(=O)O)NC(=O)[C@H](CCCNC(N)=O)NC(=O)[C@H](C(C)C)NC(=O)[C@H](CC3CCCCC3)NC(=O)[C@H](CCN)NC(=O)[C@@H](CC(C)C)NC(=O)[C@H](C)N(C)C(=O)[C@H](C(C)C)NC(=O)[C@H](Cc3ccc(-c4ccccc4)cc3)NC(=O)[C@H](C(C)C)NC2=O)c1` [Example 2261] ({CH2CO}-NY(Carboxymethyl)D[Phe(3-Me)]V[Bip]V[NMeA][dL][Dab][Cha]V[Cit]C[Sar][Aun]-OH; thioether N-14), for which the concentration for half-maximal inhibition (IC50) worked out at 25.8 nM.

In the case of `Cc1cccc(C[C@@H]2NC(=O)[C@H](CC(=O)O)NC(=O)[C@H](Cc3ccc(OCC(=O)O)cc3)NC(=O)[C@H](C(C)O)NC(=O)CSC[C@@H](C(=O)N(C)CC(=O)NCCCCCCCCCCC(=O)O)NC(=O)[C@H](C(C)O)NC(=O)[C@H](C(C)C)NC(=O)[C@H](CC3CCCCC3)NC(=O)[C@H](CCN)NC(=O)[C@@H](CC(C)C)NC(=O)[C@H](C)N(C)C(=O)[C@H](C(C)C)NC(=O)[C@H](Cc3ccc(-c4ccccc4)cc3)NC(=O)[C@H](Cc3ccc(O)cc3)NC2=O)c1` (stereo partly drawn) [Example 2262] ({CH2CO}-[Thr(3ξ)]Y(Carboxymethyl)D[Phe(3-Me)]Y[Bip]V[NMeA][dL][Dab][Cha]V[Thr(3ξ)]C[Sar][Aun]-OH; thioether N-14), the IC50 is 154 nM.
